# From PubChem BioAssay AID652002 (Sanford-Burnham Center for Chemical Genomics, 2013)
# Calls of active or inactive are those of the source. The rule behind the calls is not given here.
# How the values were obtained:
# [1] = TRAIL sensitizers in caspase-8 expressing neuroblastoma cells, dose response, NB7 cells plus caspase-8, luminescence, panel (AID 652002); conditions: NB7 neuroblastoma +caspase-8, no TRAIL, compound-alone cytotoxicity counter-screen, luminescence viability, NB7+Caspase-8
# NB7+Caspase-8 = assay: as above; conditions: NB7 neuroblastoma +caspase-8, TRAIL sensitization, luminescence viability, with TRAIL
# [2] = biological target: Tumor necrosis factor receptor superfamily member 10B (Homo sapiens) (UniProt O14763); assay: as above; conditions: NB7 neuroblastoma +caspase-8, TRAIL sensitization, luminescence viability; NB7+Caspase-8; with TRAIL, mean of runs
# [3] = run 1, single replicate panel EC50
# [4] = run 2, single replicate panel EC50
# Chain of Tumor necrosis factor receptor superfamily member 10B (Homo sapiens) (O14763 whole entry, looked up): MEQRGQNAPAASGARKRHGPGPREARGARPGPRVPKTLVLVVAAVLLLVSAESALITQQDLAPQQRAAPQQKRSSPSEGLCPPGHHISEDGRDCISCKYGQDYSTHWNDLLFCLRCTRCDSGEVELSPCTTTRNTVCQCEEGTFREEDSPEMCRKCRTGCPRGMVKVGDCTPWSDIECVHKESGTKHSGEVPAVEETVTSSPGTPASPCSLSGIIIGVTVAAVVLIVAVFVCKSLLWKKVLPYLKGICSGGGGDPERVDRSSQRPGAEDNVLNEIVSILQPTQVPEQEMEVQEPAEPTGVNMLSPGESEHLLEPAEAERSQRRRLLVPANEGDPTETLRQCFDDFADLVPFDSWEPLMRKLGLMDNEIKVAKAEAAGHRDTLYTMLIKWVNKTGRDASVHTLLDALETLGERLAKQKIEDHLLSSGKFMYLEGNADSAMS
SMILES,EC50 ([1]; mean of runs),"EC50 [1, 3]","EC50 [1, 4]",EC50 (NB7+Caspase-8; [3]),EC50 (NB7+Caspase-8; [4]),EC50 [2]
CC(C)C[C@H](NC(=O)c1nc[nH]c1C(=O)N[C@@H](CC(C)C)C(=O)OCc1ccccc1)C(=O)OCc1ccccc1,> 12.5 µM (inactive),> 12.5 µM,> 12.5 µM,> 12.5 µM,> 12.5 µM,> 12.5 µM (inactive)
COc1ccc(NS(=O)(=O)c2cccc(C(=O)N/N=C/c3c(F)c(F)c(F)c(F)c3F)c2)cc1,inactive,> 12.5 µM,11.4 µM,> 12.5 µM,> 12.5 µM,> 12.5 µM (inactive)
CCOC(=O)c1cccc(-[n+]2c(-c3ccccc3)cc(-c3ccccc3)cc2-c2ccccc2)c1,> 12.5 µM (inactive),> 12.5 µM,> 12.5 µM,> 12.5 µM,> 12.5 µM,> 12.5 µM (inactive)
CCCCCc1cc(=O)oc2c(C(CCN(CC)CC)c3cc(OC)c(OC)c(OC)c3)c(OC)cc(OC)c12 (configuration not stated),> 12.5 µM (inactive),> 12.5 µM,> 12.5 µM,> 12.5 µM,10.3 µM,inactive
O=C(ONC1=NCCCCC1)c1ccc(Cl)cc1,inactive,> 12.5 µM,7.44 µM,> 12.5 µM,> 12.5 µM,> 12.5 µM (inactive)
O=C(NC(=O)c1ccccc1)Nc1ccccc1,> 12.5 µM (inactive),> 12.5 µM,> 12.5 µM,> 12.5 µM,> 12.5 µM,> 12.5 µM (inactive)
O=C(N/N=C/c1ccc2cccnc2c1)c1ccco1,inactive,11.4 µM,12.1 µM,> 12.5 µM,6.53 µM,inactive
CCOC(=O)c1sc(NC(=O)Nc2ccc(F)cc2)nc1C,> 12.5 µM (inactive),> 12.5 µM,> 12.5 µM,> 12.5 µM,> 12.5 µM,> 12.5 µM (inactive)
Cc1nc(Cl)c2oc3ccccc3c2n1,> 12.5 µM (inactive),> 12.5 µM,> 12.5 µM,> 12.5 µM,> 12.5 µM,> 12.5 µM (inactive)
Cc1ccc2c(c1)C(=NC1CCCCC1)c1cc3ccccc3nc1-2,> 12.5 µM (inactive),> 12.5 µM,> 12.5 µM,> 12.5 µM,> 12.5 µM,> 12.5 µM (inactive)
O=c1[nH]c(=S)[nH]c2c1C(c1ccc(Cl)c(Cl)c1)OC(CCc1ccccc1)C2 (configuration not stated),> 12.5 µM (inactive),> 12.5 µM,> 12.5 µM,> 12.5 µM,> 12.5 µM,> 12.5 µM (inactive)
Cc1nn(-c2ccccc2)c2nc(N)c(C#N)c(-c3ccc(F)cc3)c12,inactive,> 12.5 µM,11.5 µM,> 12.5 µM,> 12.5 µM,> 12.5 µM (inactive)
CCC(C)c1ccc(O)c(NC(=S)NC(=O)c2cccs2)c1 (configuration not stated),inactive,5.97 µM,8.18 µM,> 12.5 µM,7.09 µM,inactive
O=C1CCCCC1Sc1nnc(-c2ccc3c(c2)OCO3)o1 (configuration not stated),inactive,> 12.5 µM,11 µM,> 12.5 µM,> 12.5 µM,> 12.5 µM (inactive)
O=C1CCCc2nc(N3CCc4ccccc43)ncc21,> 12.5 µM (inactive),> 12.5 µM,> 12.5 µM,> 12.5 µM,> 12.5 µM,> 12.5 µM (inactive)
O=Nc1ccc(NO)c2ccccc12,> 12.5 µM (inactive),> 12.5 µM,> 12.5 µM,> 12.5 µM,6.54 µM,inactive
CN(C)CCCN(C(=O)c1ccc(S(=O)(=O)N2CCCc3ccccc32)cc1)c1nc2ccc(F)cc2s1,> 12.5 µM (inactive),> 12.5 µM,> 12.5 µM,> 12.5 µM,> 12.5 µM,> 12.5 µM (inactive)
